Data as given in publication PMC6747015, “Structure–function study of a novel inhibitor of the casein kinase 1 family in Arabidopsis thaliana” (Plant Direct, 2019).

Columns and labels:
NRPB3 (AT2G15430) = molecular target: T1, NRPB3 (AT2G15430) (Arabidopsis thaliana, UniProt Q39211); test: AMI‐329 bead binding with AMI‐331 competitor, NRPB3
T1 construct: from tissue; host or cells: Arabidopsis seedlings, two weeks old
Protocol: (§1) Screening for proteins bound to AMI‐329 beads was done by a method similar to what has previously been described (Uehara et al., 2019). Briefly, two‐week‐old seedlings grown under LD conditions were harvested at time points ZT2, ZT6, ZT9, and ZT17, and stored at −80°C. Proteins from the frozen plant samples were incubated with 0, 5, or 50 µM of AMI‐331 at 4°C for 30 min with rotary mixing. Two technical replicates were used for each experiment. PBS‐washed AMI‐329 beads were added to the protein samples and gently rotated at 4°C for 1 hr. AMI‐329 bead resins were washed with bead buffer (Uehara et al., 2019) six times. The washed resins were suspended in SDS sample buffer and boiled for 8 min. Protein samples were in‐gel‐digested as previously described (Uehara et al., 2019). Peptides were analyzed with a Q Exactive hybrid quadrupole‐orbitrap mass spectrometer (Thermo Fisher Scientific), as described previously (Uehara et al., 2019). […]
(§2) However, another possible mechanism for the strong AMI‐331 biological activity in vivo is that it targets proteins other than the CK1 family for period lengthening. […] It is noteworthy that kinase AT4G08800 is very similar to the CKL family, but the ATP‐binding pocket of mammalian CK1 as determined by its crystal structure (Shinohara et al., 2017) was absent from AT4G08800, as shown in an Araport 11 model (https://www.araport.org). […]

PRR5 and TOC1 = PRR5 and TOC1 fusion protein accumulation by Western blotting; format: in vivo, Arabidopsis
Protocol: Four‐day‐old seedlings grown under 12‐hr light/12‐hr dark (LD) conditions were transferred into a 96‐well plate with a dropper. Seedlings were treated with 20 µl of MS liquid containing 2% sucrose and AMI‐331 at 2, 10, or 50 µM with a final concentration of 5% (v/v) DMSO. As a control experiment, MS containing 2% sucrose and 5% DMSO was used to treat the seedlings. Seedlings were kept under constant light (L) or constant dark (D) for 24 hr, harvested, and kept frozen until proteins were extracted. Frozen samples were crushed with zirconia beads (Tomy ZB‐50) in a Tissue Lyser II (Qiagen). Detection of PRR5‐ and TOC1‐fusion proteins was performed using a 10%–20% gradient acrylamide gel (198‐15041, Wako) as previously described (Nakamichi et al., 2012). Anti‐FLAG antibody (F3165, Sigma) and anti‐VP antibody (ab4808, Abcam) were used to detect FLAG‐fusion and VP‐fusion proteins, respectively.
It had previously been shown that CKL4 phosphorylates PSEUDO‐RESPONSE REGULATOR 5 (PRR5), a clock‐associated transcription factor in vitro, and that treatment with the CK1 inhibitor PHA767491 results in over‐accumulation of PRR5 in vivo (Uehara et al., 2019). As a further test of whether the period‐lengthening activity of AMI‐331 is related to the inhibition of CK1 in vivo, we measured the amounts of PRR5 in plants treated with AMI‐331. Seedlings expressing fusion protein PRR5‐FLAG under control of the cauliflower mosaic virus 35S promoter (35Spro:PRR5‐FLAG) were grown under constant light conditions for 4 days, treated with AMI‐331, and kept constantly in the dark for one day. In control experiments (i.e., without AMI‐331), PRR5‐FLAG protein amounts were lower under dark compared to light conditions, due to ZTL‐dependent degradation, as described in previously (Fujiwara et al., 2008; Kiba, Henriques, Sakakibara, & Chua, 2007). […] Since PHA767491 treatment also attenuates degradation of TIMING OF CAB EXPRESSION 1 (TOC1, also called as PRR1) under dark conditions (Uehara et al., 2019), we tested whether AMI‐331 affects TOC1 protein accumulation in vivo. TOC1 amounts were higher in AMI‐331‐treated plants (Figures 3c, S2).

HYD1 (AT1G20050) = molecular target: T2, HYD1 (AT1G20050) (Arabidopsis thaliana, UniProt O48962); test: AMI‐329 bead binding with AMI‐331 competitor, HYD1
T2 construct: from tissue; host or cells: Arabidopsis seedlings, two weeks old
T2 sequence (O48962 whole entry): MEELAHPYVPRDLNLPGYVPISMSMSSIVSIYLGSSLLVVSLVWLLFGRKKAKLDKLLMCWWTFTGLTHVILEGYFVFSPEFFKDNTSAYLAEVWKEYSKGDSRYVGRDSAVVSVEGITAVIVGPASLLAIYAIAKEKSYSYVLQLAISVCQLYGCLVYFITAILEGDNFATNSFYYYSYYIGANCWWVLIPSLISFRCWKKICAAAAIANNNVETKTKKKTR
Protocol: as §1, §2

[1] = test system: all members of the CK1 family and an additional ten non‐CK1 proteins; test: AMI‐329 bead binding with AMI‐331 competitor, the 23 AMI‐331‐bound proteins; design: species or system Arabidopsis thaliana
Protocol: as §1, §2

Kinase AT4G08800 = test: AMI‐329 bead binding with AMI‐331 competitor, kinase AT4G08800; design: species or system Arabidopsis thaliana
Protocol: as §1, §2

T1 sequence (Q39211 whole entry): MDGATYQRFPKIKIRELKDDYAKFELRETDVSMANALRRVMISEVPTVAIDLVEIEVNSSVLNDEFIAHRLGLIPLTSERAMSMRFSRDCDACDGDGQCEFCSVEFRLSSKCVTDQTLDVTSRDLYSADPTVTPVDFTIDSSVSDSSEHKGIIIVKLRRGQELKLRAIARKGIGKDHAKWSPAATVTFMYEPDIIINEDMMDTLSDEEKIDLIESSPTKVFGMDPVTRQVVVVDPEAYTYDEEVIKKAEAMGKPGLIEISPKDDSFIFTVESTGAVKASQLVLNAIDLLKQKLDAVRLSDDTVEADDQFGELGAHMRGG

## C#CCn1c2c(c(Br)c1-c1ccncc1)C(=O)NCC2.Cl [AMI‐331]
NRPB3 (AT2G15430); competitor AMI‐331 5 µM
  Spectra (PSMs) AMI‐329 beads bound: 0 PSMs
NRPB3 (AT2G15430); competitor AMI‐331 50 µM
  Spectra (PSMs) AMI‐329 beads bound: 0 PSMs
PRR5 and TOC1; 35Spro:PRR5‐FLAG seedlings, dark conditions
  PRR5‐FLAG protein amount: over‐accumulation of PRR5‐FLAG
PRR5 and TOC1; 35Spro:PRR5‐VP seedlings, dose‐dependent
  PRR5‐VP protein amount: accumulation of PRR5‐VP
PRR5 and TOC1; 35Spro:TOC1‐VP seedlings
  TOC1 protein amount: higher
PRR5 and TOC1; in vivo
  Effective concentration for increasing PRR5 and TOC1, times lower than required for PHA767491: 10–50 times
PRR5 and TOC1; seedlings, 24 hr in the dark
  Effective concentrations for PRR5 or TOC1 accumulation: 10 to 50 µM
HYD1 (AT1G20050); competitor AMI‐331 5 µM
  Spectra (PSMs) AMI‐329 beads bound: 0 PSMs
HYD1 (AT1G20050); competitor AMI‐331 50 µM
  Spectra (PSMs) AMI‐329 beads bound: 0 PSMs
[1]; 5 µM AMI‐331 as competitor
  Spectra on AMI‐329 beads compared to the control sample without competitor: 0% to 7%
[1]; 50 µM AMI‐331 as competitor
  Spectra on AMI‐329 beads: absent
Kinase AT4G08800; competitor AMI‐331 5 µM
  Spectra (PSMs) AMI‐329 beads bound: 0 PSMs
Kinase AT4G08800; competitor AMI‐331 50 µM
  Spectra (PSMs) AMI‐329 beads bound: 0 PSMs
